The values below come from patent US11427553B2, “Dihydrooxadiazinones” (Bayer Aktiengesellschaft, priority 2017, dated 2022).

For one test, the system named is Hs 578T cells. The test can be described thus: Assay 1 cell proliferation measurement, Hs 578T. The format is cell-based. As to conditions: Homo sapiens, Breast, read-out: Anti-proliferation IC50 [nM] Hs 578T.
For a further test, the system named is PA-1 cells. The test can be described thus: Assay 1 cell proliferation measurement, PA-1. The format is cell-based. As to conditions: Homo sapiens, Ovarian teratocarcinoma, read-out: Anti-proliferation IC50 [nM] PA-1.
A further test deals with A-2058 cells. The test can be described thus: Assay 1 cell proliferation measurement, A-2058. The format is cell-based. As to conditions: Homo sapiens, A2058; Melanoma; read-out: Anti-proliferation IC50 [nM] A-2058.
A further test concerns RVH421 cells. The test can be described thus: Assay 2 cell proliferation measurement, RVH421. The format is cell-based. Particulars: Homo sapiens, RVH-421, Melanoma, read-out: Anti-proliferation IC50 [nM] RVH421. As to the method:
(§1) Cell Proliferation Measurement
(§2) The antiproliferative activity of the compounds of the general formula (I) was examined in vitro in human cancer cells. For this purpose, 500 cells, including HeLa cells, A2058 cells, DU145 cells, HMCB cells, IGR37 cells, NCIH1734 cells, OSRC2 cells, or 750 cells, including CAL51 cells, COL0741 cells, DBTRG05MG cells, DKMG cells, G292CLONEA141B1 cells, GB1 cells, HEL cells, HEL9217 cells, JHUEM1 cells, L3.3 cells, LI7 cells, TE4 cells, or 1000 cells, including 8505C cells, HUT78 cells, NCIH1563 cells, NCIH2122 cells, NCIH2172 cells, RVH421 cells, SKMEL3 cells, or 1500 cells, including C32 cells, HS578T cells, JHOM1 cells, NCIH196 cells, OVKATE cells, were plated in 384-well plates with appropriate growth medium and incubated at 37° C. overnight. After 24 h, the cells on the test plate were treated with the compounds of the general formula (I) as and incubated at 37° C. for 72 h. The compounds were added to the cells by means of an HP D300 digital dispenser in a 10 (or more)-step dilution series. As control, the cells were treated with vehicle (DMSO at 0.3% final concentration). After 72 h, the cells were treated with 20 μl/well of 50% CTG solution in PBS (Promega Cell Titer Glo (catalogue #G755B and G756B)) and incubated at room temperature for 10 min, and luminescence was measured by means of a VICTOR V (Perkin Elmer), in order to determine cell viability at the end of treatment. The percentage effect on cell growth and the IC50 derived therefrom were determined for each test substance using the values from untreated wells (=percent viability). The IC50 values were calculated using a 4-parameter fit.

The subject of a further test is HS578T cells. Kind of test: Assay 2 cell proliferation measurement, HS578T. The format is cell-based. Particulars: Homo sapiens, Hs-578T, Breast, ductal carcinoma, read-out: Anti-proliferation IC50 [nM] HS578T. As to the method: as §1, §2
Another test deals with NCIH2172 cells. Kind of test: Assay 2 cell proliferation measurement, H2172. The format is cell-based. As to conditions: Homo sapiens, NCI-H2172, Lung non small cell carcinoma, read-out: Anti-proliferation IC50 [nM] H2172. The method, then:
as §1, §2

In a further test the test system is NCIH196 cells. The test can be described thus: Assay 2 cell proliferation measurement, H196. Particulars: Homo sapiens, NCI-H196, Lung small cell carcinoma, read-out: Anti-proliferation IC50 [nM] H196. The format is cell-based. The method, then:
as §1, §2

The test system of test [1] is IGR-37 xenograft (Melanoma). Kind of test: Assay 3 in vivo xenotransplantation model, IGR-37. Particulars: IGR-37 melanoma xenograft, mice, 10 mg/kg 2QD p.o.; * P < 0.05 vs control. From the text:
In Vivo Xenotransplantation Models
The anti-tumor activities of Compounds of examples 135 and 146 were examined in murine xenotransplantation models of human cancer. For this purpose, mice were implanted subcutaneously with tumor cells. At a mean tumor size of 20-40 mm^2 animals were randomized into treatment and control groups (at least n=10 animals/group) and treatment started with vehicle only or respective Compound (formulation: 90% PEG400/10% Ethanol; application route: per os (“p.o.”), orally). The oral application volume was 10 ml/kg. In the case of twice daily treatments, the time interval between two applications per day was 6-7 h. The tumor size and the body weight were determined at least weekly. The tumor area was detected by means of an electronic caliper [length (mm)×width (mm)]. The experiment was ended when the study reached the pre-determined ethical endpoint based on German and European animal welfare regulations. In vivo anti-tumor efficacy is presented as T/C ratio at study end (Treatment/Control; mean tumor weight of treatment group/mean tumor weight of control group) in Table 8. A compound having a T/C below 0.5 is defined as active (i.e., effective). Statistical analysis was assessed using SigmaStat software. A one-way analysis of variance was performed and differences to the control were compared by a pair-wise comparison procedure (Dunn's method).

A further test concerns L3.3 cells. The test can be described thus: Assay 2 cell proliferation measurement, L3.3. The format is cell-based. As to conditions: Homo sapiens, Pancreas NS, read-out: Anti-proliferation IC50 [nM] L3.3. As to the method: as §1, §2

Regarding `O=C1NN=C(c2ccc(-c3ccc(F)cc3)c(C(F)(F)F)c2)CO1` [Example 3, 5-[4′-Fluoro-2-(trifluoromethyl)biphenyl-4-yl]-3,6-dihydro-2H-1,3,4-oxadiazin-2-one], the IC50 in the test on Hs 578T cells was found to be 29 nM; with PA-1 cells, 22 nM.

As to `O=C1NN=C(c2ccc(-c3ccc(Cl)cc3)c(C(F)(F)F)c2)CO1` [Example 31, 5-[4′-Chloro-2-(trifluoromethyl)biphenyl-4-yl]-3,6-dihydro-2H-1,3,4-oxadiazin-2-one], the IC50 was greater than 100 nM in the test with Hs 578T cells, 51 nM in the test with A-2058 cells and 39 nM in the test with PA-1 cells.

Turning to `C[C@@H]1OC(=O)NN=C1c1ccc(-c2ccc(F)cc2)c(C(F)(F)F)c1` [Example 135, (6S)-5-[4′-Fluoro-2-(trifluoromethyl)biphenyl-4-yl]-6-methyl-3,6-dihydro-2H-1,3,4-oxadiazin-2-one], the IC50 in the test with RVH421 cells is 140 nM; in the test with HS578T cells, 33 nM; in the test with NCIH2172 cells, 38 nM; in the test on NCIH196 cells, 150 nM; in the test on A-2058 cells it was 24 nM; with L3.3 cells, 82 nM. Besides, the “T/C (mean final tumor weight treatment / control)” value in test [1] was 0.06*.

Take `O=C1NN=C(c2ccc(-c3cnn(C(F)F)c3)c(C(F)(F)F)c2)CO1` [Example 146, 5-{4-[1-(Difluoromethyl)-1H-pyrazol-4-yl]-3-(trifluoromethyl)phenyl}-3,6-dihydro-2H-1,3,4-oxadiazin-2-one]: the IC50 in the test on Hs 578T cells stood at 28 nM; in the test with RVH421 cells it was 47 nM; with HS578T cells it was 20 nM; with NCIH2172 cells it was 37 nM; in the test with NCIH196 cells it was 32 nM; in the test with A-2058 cells it was 16 nM. In addition, the IC50 with L3.3 cells was found to be 15 nM; with PA-1 cells, 12 nM. Besides, in test [1], the “T/C (mean final tumor weight treatment / control)” value is 0.05*.

In the case of `C[C@@H]1OC(=O)NN=C1c1ccc(-n2ccc(C(F)(F)F)n2)c(C(F)(F)F)c1` [Example 265, (6S)-6-Methyl-5-{3-(trifluoromethyl)-4-[3-(trifluoromethyl)-1H-pyrazol-1-yl]phenyl}-3,6-dihydro-2H-1,3,4-oxadiazin-2-one], the IC50 in the test on RVH421 cells is 262 nM; in the test on HS578T cells, 116 nM; with NCIH2172 cells it was 101 nM; in the test with NCIH196 cells it was 355 nM; in the test on L3.3 cells, 312 nM. For the same molecule, the “T/C (mean final tumor weight treatment / control)” value in test [1] is 0.27*.
